Values quoted from earlier work in patent publication US20080260683A1, “Rodenticide” (priority 2004, published 2008).

Row | Structure (SMILES) | solubility in water
1 | O=c1oc2ccccc2c(O)c1C1CC(c2ccc(-c3ccc(Br)cc3)cc2)Cc2ccccc21 (stereo not shown) [Brodifacoum, brodifacoum] | insoluble or weakly soluble in water
2 | O=c1oc2ccccc2c(O)c1C(CC(O)c1ccc(-c2ccc(Br)cc2)cc1)c1ccccc1 (stereo not shown) [bromadiolone] | insoluble or weakly soluble in water
3 | O=c1sc2ccccc2c(O)c1C1CC(c2ccc(-c3ccc(Br)cc3)cc2)Cc2ccccc21 (stereo not shown) [difethialone] | insoluble or weakly soluble in water
4 | O=c1oc2ccccc2c(O)c1C1CC(c2ccc(OCc3ccc(C(F)(F)F)cc3)cc2)Cc2ccccc21 (stereo not shown) [flocoumafen] | insoluble or weakly soluble in water
